According to patent US20260166159A1, “KRAS G12D DEGRADATION AGENT, AND PREPARATION METHOD AND USE THEREFOR” (LEADINGTAC PHARMACEUTICAL (SHAOXING) CO., LTD., priority 2022, published 2026):

Legend:
[1] = biological target: T1, Human KRAS G12D 6His-tagged (Homo sapiens, UniProt P01116, G12D); assay: KRAS-G12D/GTP binding assay (HTRF)
T1 construct: purchased PerkinElmer
Description: In this method, the inhibitory effects of the compounds on the binding of KRAS-G12D to GTP were assayed by a homogeneous time-resolved fluorescence (HTRF) technique using a KRAS-G12D/GTP binding assay kit (PerkinElmer).
The experimental procedures were as follows (refer to the kit instructions for detailed test methods): the compounds of the present disclosure were each firstly dissolved in DMSO at a concentration of 20 mM, and then diluted in an equal gradient with a buffer in the kit, so that the final concentrations of the test compounds in the reaction system were in a range of 0.02-5000 nM, and the final concentration of DMSO was 0.5%. 5 μL of each compound was incubated with 5 μL of 1× Human KRAS G12D 6His-tagged (PerkinElmer), 5 μL of 1×6His Eu Cryptate Antibody (PerkinElmer), and 5 μL of 1×GTP Red reagent (PerkinElmer) in a 384-well plate (Greiner) at 25° C. for 1 h. After the incubation was completed, the fluorescence intensity of each well was measured at the excitation wavelength of 337 nm and the emission wavelengths of 620 nm and 665 nm with an EnVision microplate reader (PerkinElmer) in the HTRF mode, and Ratio values were calculated using the formula: Ratio=(665 nm/620 nm)×[…]. The inhibition rates of the compounds at each concentration were calculated by comparing the fluorescence intensity ratio with that of the control group. Then non-linear curve fittings for logarithmic concentration-inhibition rate were performed using the GraphPad Prism 8 analysis software, and the IC50 values of the compounds were obtained (Table 2).

KRAS-G12D = biological target: T2, KRAS-G12D (Homo sapiens, UniProt P01116, G12D); assay: KRAS-G12D degradation assay (Western Blot), A-427 cells; format: cell-based; details: A427 cells, 24 h, class symbols; for Dmax: A-427
T2 construct: endogenous in cells; host or cells: A-427 (ATCC), AGS, AsPc-1, Panc 04.03
In short: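 Western blotting of lysates (5 μg protein) quantified KRAS against a β-actin reference after 24 h exposure to compound at final 0.03–3000 nM in 0.25% DMSO. Cells were A-427, AGS, AsPc-1 or Panc 04.03, all KRAS G12D, at 5×10^5/well. Degradation versus control yielded DC50 and Dmax.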

[2] = tested on: KRAS G12D mutant human gastric cancer cell AGS; assay: 3D cell proliferation inhibition assay, AGS; format: cell-based; details: 168 h, 7 days, CTG
In short: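 3D growth, low-adsorption plate; 5×10^2 cells/well; cpd 10000–0.026 nM final, 0.2% DMSO; 7 d, 37 °C/5% CO2. CTG luminescence, 60 min RT. % inhibition vs DMSO (cells) and medium blanks; IC50 by nonlinear fit.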

T1 sequence (P01116 1-188 isoform P01116-2 G12D): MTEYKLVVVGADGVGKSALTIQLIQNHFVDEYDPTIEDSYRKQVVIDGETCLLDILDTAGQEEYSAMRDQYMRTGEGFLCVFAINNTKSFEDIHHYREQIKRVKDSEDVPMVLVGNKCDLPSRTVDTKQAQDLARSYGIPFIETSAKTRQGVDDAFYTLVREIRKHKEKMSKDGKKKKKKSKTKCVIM
T2 sequence (P01116 1-188 isoform P01116-2 G12D): as above

**Q.** `C#Cc1c(F)ccc2cc(O)cc(-c3ncc4c(N5CC6CCC(C5)N6)nc(OCC5(CN6CCN(C(=O)c7ccc(Cl)c(N8CCC(=O)NC8=O)c7)CC6)CC5)nc4c3F)c12` [Example 69, 1-(5-(4-((1-(((4-(3,8-diazabicyclo[3.2.1]octan-3-yl)-7-(8-ethynyl-7-fluoro-3-hydroxynaphthalen-1-yl)-8-fluoropyrido[4,3-d]pyrimidin-2-yl)oxy)methyl)cyclopropyl)methyl)piperazine-1-carbonyl)-2-chlorophenyl)dihydropyrimidine-2,4(1H,3H)-dione] was tested. Which IC50 ([1]; numeric values) did it give?
**A.** Its IC50 is 2.4 nM.

**Q.** Which results are given for `C#Cc1c(F)ccc2cc(O)cc(-c3ncc4c(N5CC6CCC(C5)N6)nc(OCC5CCN(CCCCC6CCC7(CC6)CCN(C(=O)c6ccc(Cl)c(N8CCC(=O)NC8=O)c6)CC7)CC5)nc4c3F)c12` [Example 52, 1-(5-(9-(4-(4-(((4-(3,8-diazabicyclo[3.2.1]octan-3-yl)-7-(8-ethynyl-7-fluoro-3-hydroxynaphthalen-1-yl)-8-fluoropyrido[4,3-d]pyrimidin-2-yl)oxy)methyl)piperidin-1-yl)butyl)-3-azaspiro[5.5]undecane-3-carbonyl)-2-chlorophenyl)dihydropyrimidine-2,4(1H,3H)-dione]?
**A.** IC50 ([1]; class symbols): 100 to 500 nM; DC50 (KRAS-G12D): 100 to 500 nM; Dmax (KRAS-G12D): 50 to 80%

**Q.** For `C#Cc1c(F)ccc2cc(O)cc(-c3ncc4c(N5CC6CCC(C5)N6)nc(OCC5(CN6CC7CCC(C6)N7CC6CCC7(CC6)CCN(C(=O)c6ccc(Cl)c(N8CCC(=O)NC8=O)c6)CC7)CC5)nc4c3F)c12` [Example 58, 1-(5-(9-((3-((1-(((4-(3,8-diazabicyclo[3.2.1]octan-3-yl)-7-(8-ethynyl-7-fluoro-3-hydroxynaphthalen-1-yl)-8-fluoropyrido[4,3-d]pyrimidin-2-yl)oxy)methyl)cyclopropyl)methyl)-3,8-diazabicyclo[3.2.1]octan-8-yl)methyl)-3-azaspiro[5.5]undecane-3-carbonyl)-2-chlorophenyl)dihydropyrimidine-2,4(1H,3H)-dione], which IC50 ([1]; class symbols) is on record?
**A.** Its IC50 is 500 to 1000 nM.

**Q.** What about the DC50 (KRAS-G12D) of the same compound?
**A.** The DC50 was no more than 50 nM.

**Q.** And the Dmax (KRAS-G12D)?
**A.** The Dmax was 80 to 100%.

**Q.** What does the source list for `CCc1cccc2cc(O)cc(-c3ncc4c(N5CC6CCC(C5)N6)nc(OC[C@@H]5CCCN5CCCC5CCN(C(=O)c6ccc(Cl)c(N7CCC(=O)NC7=O)c6)CC5)nc4c3F)c12` [Example 1, 1-(5-(4-(3-((S)-2-(((4-(3,8-diazabicyclo[3.2.1]octan-3-yl)-7-(8-ethyl-3-hydroxynaphthalen-1-yl)-8-fluoropyrido[4,3-d]pyrimidin-2-yl)oxy)methyl)pyrrolidin-1-yl)propyl)piperidine-1-carbonyl)-2-chlorophenyl)dihydropyrimidine-2,4(1H,3H)-dione]?
**A.** IC50 ([1]; class symbols): 100 to 500 nM; DC50 (KRAS-G12D): 1000 to 10000 nM; Dmax (KRAS-G12D): 30 to 50%

**Q.** `C#Cc1c(F)ccc2cc(O)cc(-c3ncc4c(N5CC6CCC(C5)N6)nc(OCC5(CN6CCC(O)(COCCC7CCN(C(=O)c8ccc(Cl)c(N9CCC(=O)NC9=O)c8)CC7)CC6)CC5)nc4c3F)c12` [Example 63] was tested. Which IC50 ([1]; numeric values) did it give?
**A.** The IC50 was 1.15 nM.

**Q.** Which results are given for `C#Cc1c(F)ccc2cc(O)cc(-c3ncc4c(N5CC6CCC(C5)N6)nc(OC[C@@H]5CCCN5CC5CCC6(CC5)CCN(C(=O)c5ccc(Cl)c(N7CCC(=O)NC7=O)c5)CC6)nc4c3F)c12` [Example 12, 1-(5-(9-(((S)-2-(((4-(3,8-diazabicyclo[3.2.1]octan-3-yl)-7-(8-ethynyl-7-fluoro-3-hydroxynaphthalen-1-yl)-8-fluoropyrido[4,3-d]pyrimidin-2-yl)oxy)methyl)pyrrolidin-1-yl)methyl)-3-azaspiro[5.5]undecane-3-carbonyl)-2-chlorophenyl)dihydropyrimidine-2,4(1H,3H)-dione]?
**A.** IC50 ([1]; class symbols): 100 to 500 nM; DC50 (KRAS-G12D): 1000 to 10000 nM; Dmax (KRAS-G12D): 50 to 80%

**Q.** Which results are given for `C#Cc1c(F)ccc2cc(O)cc(-c3ncc4c(N5CC6CCC(C5)N6)nc(OC[C@@H]5CCCN5CCCC5CCN(C(=O)c6ccc(Cl)c(N7CCC(=O)NC7=O)c6)CC5)nc4c3F)c12` [Example 9, 1-(5-(4-(3-((S)-2-(((4-(3,8-diazabicyclo[3.2.1]octan-3-yl)-7-(8-ethynyl-7-fluoro-3-hydroxynaphthalen-1-yl)-8-fluoropyrido[4,3-d]pyrimidin-2-yl)oxy)methyl)pyrrolidin-1-yl)propyl)piperidine-1-carbonyl)-2-chlorophenyl)dihydropyrimidine-2,4(1H,3H)-dione]?
**A.** IC50 ([1]; class symbols): 50 to 100 nM; DC50 (KRAS-G12D): 1000 to 10000 nM; Dmax (KRAS-G12D): 30 to 50%

**Q.** Which results are given for `CCc1cccc2cc(O)cc(-c3ncc4c(N5CC6CCC(C5)N6)nc(OC[C@@H]5CCCN5CCC5CCN(CCC(=O)N[C@H](C(=O)N6C[C@H](O)C[C@H]6C(=O)NCc6ccc(-c7scnc7C)cc6)C(C)(C)C)CC5)nc4c3F)c12` [Example 34, (2S,4R)-1-((S)-2-(3-(4-(2-((S)-2-(((4-(3,8-diazabicyclo[3.2.1]octan-3-yl)-7-(8-ethyl-3-hydroxynaphthalen-1-yl)-8-fluoropyrido[4,3-d]pyrimidin-2-yl)oxy)methyl)pyrrolidin-1-yl)ethyl)piperidin-1-yl)propanamido)-3,3-dimethylbutanoyl)-4-hydroxy-N-(4-(4-methylthiazol-5-yl)benzyl)pyrrolidine-2-carboxamide]?
**A.** IC50 ([1]; class symbols): 100 to 500 nM; DC50 (KRAS-G12D): 1000 to 10000 nM; Dmax (KRAS-G12D): < 30%

**Q.** How did the IC50 ([1]; numeric values) turn out when `C#Cc1c(F)ccc2cc(O)cc(-c3ncc4c(N5CC6CCC(C5)N6)nc(OCC5(CN6CCC7(CC6)CCN(C(=O)c6ccc(Cl)c(N8CCC(=O)NC8=O)c6)CC7)CC5)nc4c3F)c12` [Example 85, 1-(5-(9-((1-(((4-(3,8-diazabicyclo[3.2.1]octan-3-yl)-7-(8-ethynyl-7-fluoro-3-hydroxynaphthalen-1-yl)-8-fluoropyrido[4,3-d]pyrimidin-2-yl)oxy)methyl)cyclopropyl)methyl)-3,9-diazaspiro[5.5]undecane-3-carbonyl)-2-chlorophenyl)dihydropyrimidine-2,4(1H,3H)-dione] was run?
**A.** The IC50 was 1.34 nM.

**Q.** What about the IC50 ([2]; numeric values) of the same compound?
**A.** Its IC50 is 50.2 nM.

**Q.** How did the IC50 ([1]; class symbols) turn out when `C#Cc1c(F)ccc2cc(O)cc(-c3ncc4c(N5CC6CCC(C5)N6)nc(OCC5(CN6CCN(CC7CCN(C(=O)c8ccc(Cl)c(N9CCC(=O)NC9=O)c8)CC7)CC6)CC5)nc4c3F)c12` [Example 27, 1-(5-(4-((4-((1-(((4-(3,8-diazabicyclo[3.2.1]octan-3-yl)-7-(8-ethynyl-7-fluoro-3-hydroxynaphthalen-1-yl)-8-fluoropyrido[4,3-d]pyrimidin-2-yl)oxy)methyl)cyclopropyl)methyl)piperazin-1-yl)methyl)piperidine-1-carbonyl)-2-chlorophenyl)dihydropyrimidine-2,4(1H,3H)-dione] was run?
**A.** Its IC50 is no more than 50 nM.

**Q.** And the IC50 ([2]; class symbols)?
**A.** The IC50 was no more than 50 nM.

**Q.** What about the DC50 (KRAS-G12D) of the same compound?
**A.** The DC50 was 1000 to 10000 nM.

**Q.** And the Dmax (KRAS-G12D)?
**A.** Its Dmax is 30 to 50%.

**Q.** What does the source list for `C#Cc1c(F)ccc2cc(O)cc(-c3ncc4c(N5CC6CCC(C5)N6)nc(OCC5(CN6CCC(CCN7CCN(C(=O)c8ccc(Cl)c(N9CCC(=O)NC9=O)c8)CC7)CC6)CC5)nc4c3F)c12` [Example 28, 1-(5-(4-(2-(1-((1-(((4-(3,8-diazabicyclo[3.2.1]octan-3-yl)-7-(8-ethynyl-7-fluoro-3-hydroxynaphthalen-1-yl)-8-fluoropyrido[4,3-d]pyrimidin-2-yl)oxy)methyl)cyclopropyl)methyl)piperidin-4-yl)ethyl)piperazine-1-carbonyl)-2-chlorophenyl)dihydropyrimidine-2,4(1H,3H)-dione]?
**A.** IC50 ([1]; class symbols): ≤ 50 nM; DC50 (KRAS-G12D): 1000 to 10000 nM; Dmax (KRAS-G12D): < 30%

**Q.** How did the IC50 ([1]; class symbols) turn out when `C#Cc1c(F)ccc2cc(O)cc(-c3ncc4c(N5CC6CCC(C5)N6)nc(OC[C@@H]5CCCN5CC5CCN(CCC(=O)N[C@H](C(=O)N6C[C@H](O)C[C@H]6C(=O)NCc6ccc(-c7scnc7C)cc6)C(C)(C)C)CC5)nc4c3F)c12` [Example 35, (2S,4R)-1-((S)-2-(3-(4-(((S)-2-(((4-(3,8-diazabicyclo[3.2.1]octan-3-yl)-7-(8-ethynyl-7-fluoro-3-hydroxynaphthalen-1-yl)-8-fluoropyrido[4,3-d]pyrimidin-2-yl)oxy)methyl)pyrrolidin-1-yl)methyl)piperidin-1-yl)propanamido)-3,3-dimethylbutanoyl)-4-hydroxy-N-(4-(4-methylthiazol-5-yl)benzyl)pyrrolidine-2-carboxamide] was run?
**A.** The IC50 was no more than 50 nM.

**Q.** And the DC50 (KRAS-G12D)?
**A.** The DC50 was 1000 to 10000 nM.

**Q.** What about the Dmax (KRAS-G12D) of the same compound?
**A.** The Dmax was less than 30%.
